{"source": "patent US20240366543A1", "about": "“METHODS OF TREATING METHYLMALONIC ACIDEMIA AND PROPIONIC ACIDEMIA” (HemoShear Therapeutics, Inc., priority 2021, published 2024)", "assay": "Phase 2 study preliminary plasma pharmacokinetics in PA/MMA subjects", "type": "in vivo, human", "settings": "dose range of 1 mg/kg to 30 mg/kg, once or twice daily", "description": "Part A is the dose escalation phase to assess the initial safety and to confirm the pharmacologic activity of Compound 5 in subjects with PA and MMA. Screening for eligibility took place within 28 days of enrollment. All subjects were initially evaluated during a 4-week run-in period followed by within-subject dose escalation of 3 doses (1, 3, and 10 mg/kg QD of sodium 2,2-dimethylbutanoate); dose escalation interval of 4 weeks) to check for improvement in disease-related biomarkers.\nPlasma will be analyzed by liquid chromatography with tandem mass spectrometry (LC-MS/MS) with a lower limit of quantitation of 0.100 μg/mL. Samples collected for analyses of Compound 5 (plasma/serum/whole blood)] concentration may also be used to evaluate safety or efficacy aspects related to concerns arising during or after the study.\nPreliminary pharmacokinetics (PK) data from the first two subjects of Study described in Examples 7-8 was evaluated at 1 mg/kg, 3 mg/kg and 10 mg/kg of Compound 5 dosed once daily (QD).", "data": [{"smiles": "CCC(C)(C)C(=O)[O-].[Na+]", "note": "[Compound 5A, 2,2-dimethylbutyric acid sodium salt]", "values": [{"measurement": "Blood plasma concentrations versus dose", "result": "dose proportional"}]}]}
